Test results reported in PubChem BioAssay AID330 (DTP/NCI, 2004).
“And” between values parts separate entries of the source, which are not always exact repeats. Equal values may be shown once. Toxic doses and inconclusive results are not listed.

System: P388 leukemia ip, CD2F1 mice, survival T/C
Test: NCI In Vivo Anticancer Drug Screen. Data for tumor model P388 Leukemia (intraperitoneal) in CD2F1 (CDF1) mice
Details: endpoint: median survival time, higher = longer survival
Procedure, shortened: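 Mice carrying the transplanted tumor received test compound or vehicle. Survival was recorded in each group, and the value is the treated-group measurement divided by that of the vehicle-treated control group.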

[1] = dose: 25.0 mg/kg/injection, schedule: Q04DX003 (ip), vehicle: saline with Tween-80
[2] = dose: 50.0 mg/kg/injection, schedule: Q04DX003 (ip), vehicle: saline with Tween-80
[3] = dose: 200.0 mg/kg/injection, schedule: Q04DX003 (ip), vehicle: Klucel (hydroxypropylcellulose) (HPC)
[4] = dose: 50.0 mg/kg/injection, schedule: Q01DX005 (ip), vehicle: Klucel (hydroxypropylcellulose) (HPC)
[5] = dose: 100.0 mg/kg/injection, schedule: Q01DX005 (ip), vehicle: Klucel (hydroxypropylcellulose) (HPC)
[6] = dose: 50.0 mg/kg/injection, schedule: Q01DX005 (ip), vehicle: saline with Tween-80
[7] = dose: 50.0 mg/kg/injection, schedule: Q01DX009 (ip), vehicle: saline
[8] = dose: 100.0 mg/kg/injection, schedule: Q01DX005 (ip), vehicle: saline with Tween-80
[9] = dose: 200.0 mg/kg/injection, schedule: Q01DX005 (ip), vehicle: saline with Tween-80
[10] = dose: 100.0 mg/kg/injection, schedule: Q04DX002 (ip), vehicle: Klucel (hydroxypropylcellulose) (HPC)
[11] = dose: 200.0 mg/kg/injection, schedule: Q04DX002 (ip), vehicle: Klucel (hydroxypropylcellulose) (HPC)
[12] = dose: 400.0 mg/kg/injection, schedule: Q04DX002 (ip), vehicle: Klucel (hydroxypropylcellulose) (HPC)
[13] = dose: 100.0 mg/kg/injection, schedule: Q01DX009 (ip), vehicle: saline
[14] = dose: 200.0 mg/kg/injection, schedule: Q01DX009 (ip), vehicle: saline
[15] = dose: 100.0 mg/kg/injection, schedule: Q04DX003 (ip), vehicle: saline with Tween-80
[16] = dose: 50.0 mg/kg/injection, schedule: Q01DX009 (ip), vehicle: saline with Tween-80
[17] = dose: 100.0 mg/kg/injection, schedule: Q01DX009 (ip), vehicle: saline with Tween-80
[18] = dose: 200.0 mg/kg/injection, schedule: Q01DX009 (ip), vehicle: saline with Tween-80

Q: Which T/C [1] does the source give for `COC(/C=N/OC(C)=O)c1ccccc1` (configuration not stated) here?
A: 98 % of control and 99 % of control

Q: What about the T/C [2] of the same compound?
A: 102 % of control and 92 % of control

Q: For `CCCCCCC[CH2][Sn]([CH2]C)([CH2]C)[O]C(C)=O`, which T/C (dose: 0.25 mg/kg/injection, schedule: Q01DX009 (ip), vehicle: saline with Tween-80) is on record?
A: 122 % of control

Q: With `CCN(CC)c1ccc2cc(-c3nc4ccccc4n3C)c(=O)oc2c1` as the compound, how does the T/C [3] read?
A: 183 % of control

Q: For `Cc1ccc(I)c(C(O)(C(F)(F)F)C(F)(F)F)c1`, which T/C (dose: 50.0 mg/kg/injection, schedule: Q01DX009 (ip), vehicle: Klucel (hydroxypropylcellulose) (HPC)) is on record?
A: 97 % of control

Q: What about the T/C (dose: 100.0 mg/kg/injection, schedule: Q01DX009 (ip), vehicle: Klucel (hydroxypropylcellulose) (HPC)) of the same compound?
A: 91 % of control

Q: Which results are given for `Cc1ccc(S(=O)(=O)C(Cc2cc(Cl)cc(Cl)c2O)C(=O)c2ccccc2)cc1` (configuration not stated)?
A: T/C [4]: 101 % of control; T/C [5]: 90 % of control; T/C (dose: 200.0 mg/kg/injection, schedule: Q01DX005 (ip), vehicle: Klucel (hydroxypropylcellulose) (HPC)): 92 % of control

Q: `ClC1=CC=c2ccc3c(c2[N-]1)[N-]C(Cl)=CC=3.ClC1=CC=c2ccc3c(c2[N-]1)[N-]C(Cl)=CC=3.O=[N+]([O-])O.[Cu+]` was tested. Which T/C (dose: 6.25 mg/kg/injection, schedule: Q04DX002 (ip), vehicle: suspension in saline) did it give?
A: 101 % of control

Q: And the T/C (dose: 12.5 mg/kg/injection, schedule: Q04DX002 (ip), vehicle: suspension in saline)?
A: 93 % of control

Q: And the T/C (dose: 25.0 mg/kg/injection, schedule: Q04DX002 (ip), vehicle: suspension in saline)?
A: 98 % of control

Q: How did the T/C (dose: 12.5 mg/kg/injection, schedule: Q01DX005 (ip), vehicle: saline with Tween-80) turn out when `Cc1cc2c(cc1NCc1ccccc1)C(C)C(=O)CCC(=O)N2Cc1ccccc1` (configuration not stated) was run?
A: 101 % of control

Q: And the T/C (dose: 25.0 mg/kg/injection, schedule: Q01DX005 (ip), vehicle: saline with Tween-80)?
A: 99 % of control

Q: And the T/C [6]?
A: 90 % of control and 94 % of control

Q: How did the T/C (dose: 2.5 mg/kg/injection, schedule: Q01DX010 (ip), vehicle: saline) turn out when `CC1=CC(=O)NC1O` (configuration not stated) was run?
A: 104 % of control

Q: What about the T/C (dose: 5.0 mg/kg/injection, schedule: Q01DX010 (ip), vehicle: saline) of the same compound?
A: 95 % of control

Q: What about the T/C (dose: 10.0 mg/kg/injection, schedule: Q01DX010 (ip), vehicle: saline) of the same compound?
A: 90 % of control

Q: And the T/C (dose: 15.0 mg/kg/injection, schedule: Q01DX010 (ip), vehicle: saline)?
A: 95 % of control

Q: And the T/C (dose: 23.0 mg/kg/injection, schedule: Q01DX009 (ip), vehicle: saline)?
A: 95 % of control

Q: And the T/C (dose: 35.0 mg/kg/injection, schedule: Q01DX009 (ip), vehicle: saline)?
A: 86 % of control

Q: What about the T/C [7] of the same compound?
A: 104 % of control

Q: Which results are given for `CCN(CC)C(=S)S`?
A: T/C (dose: 100.0 mg/kg/injection, schedule: Q04DX003 (ip), vehicle: saline sonified): 95 % of control; T/C (dose: 200.0 mg/kg/injection, schedule: Q04DX003 (ip), vehicle: saline sonified): 100 % of control; T/C (dose: 400.0 mg/kg/injection, schedule: Q04DX003 (ip), vehicle: saline sonified): 90 % of control

Q: Which results are given for `COc1cc2cc(/C(C)=N/OCC3CO3)c(Cl)nc2cc1OC` (configuration not stated)?
A: T/C [6]: 96 % of control; T/C [8]: 93 % of control; T/C [9]: 92 % of control

Q: Which T/C (dose: 100.0 mg/kg/injection, schedule: Q01DX001 (ip), vehicle: suspension in saline) does the source give for `COc1ccc2c(CP(=O)(O)O)cc(=O)oc2c1` here?
A: 99 % of control

Q: And the T/C (dose: 200.0 mg/kg/injection, schedule: Q01DX001 (ip), vehicle: suspension in saline)?
A: 100 % of control

Q: And the T/C (dose: 400.0 mg/kg/injection, schedule: Q01DX001 (ip), vehicle: suspension in saline)?
A: 87 % of control

Q: `Nc1nc(=O)nc2[nH]c3c4cccc5cccc(c3nc12)c54` was tested. Which T/C (dose: 60.0 mg/kg/injection, schedule: Q01DX005 (ip), vehicle: saline with Tween-80) did it give?
A: 96 % of control

Q: What about the T/C [10] of the same compound?
A: 100 % of control

Q: What about the T/C (dose: 120.0 mg/kg/injection, schedule: Q01DX005 (ip), vehicle: saline with Tween-80) of the same compound?
A: 93 % of control

Q: And the T/C [11]?
A: 100 % of control

Q: What about the T/C (dose: 240.0 mg/kg/injection, schedule: Q01DX005 (ip), vehicle: saline with Tween-80) of the same compound?
A: 100 % of control

Q: And the T/C [12]?
A: 101 % of control

Q: Which T/C [4] does the source give for `CC(=O)C(Cl)C(=O)c1c(C)[nH]n(-c2ccccc2)c1=O` (configuration not stated) here?
A: 110 % of control

Q: What about the T/C [5] of the same compound?
A: 123 % of control

Q: How did the T/C [7] turn out when `NC(=O)c1ccccc1NC(=O)CCCC(=O)O` was run?
A: 98 % of control

Q: And the T/C [13]?
A: 108 % of control

Q: And the T/C [14]?
A: 97 % of control

Q: `COc1nncc(-c2cnnc(OC)n2)n1` was tested. Which T/C (dose: 3.13 mg/kg/injection, schedule: Q01DX009 (ip), vehicle: saline with Tween-80) did it give?
A: 105 % of control

Q: What about the T/C (dose: 6.25 mg/kg/injection, schedule: Q01DX009 (ip), vehicle: saline with Tween-80) of the same compound?
A: 100 % of control

Q: What about the T/C (dose: 12.5 mg/kg/injection, schedule: Q01DX009 (ip), vehicle: saline with Tween-80) of the same compound?
A: 102 % of control

Q: For `CC(C)(C)N1CCOCN2CCCCC2CCN(C(C)(C)C)CCOCN2CCCCC2CC1` (configuration not stated), which T/C (dose: 50.0 mg/kg/injection, schedule: Q01DX005 (ip), vehicle: saline) is on record?
A: 100 % of control

Q: And the T/C (dose: 100.0 mg/kg/injection, schedule: Q01DX005 (ip), vehicle: saline)?
A: 99 % of control

Q: And the T/C (dose: 200.0 mg/kg/injection, schedule: Q01DX005 (ip), vehicle: saline)?
A: 100 % of control

Q: What does the source list for `COC(=O)C1=C/C=C\CN(CCC2OCC(CBr)O2)/C=C\1C(=O)OC` (configuration not stated)?
A: T/C (dose: 100.0 mg/kg/injection, schedule: Q01DX001 (ip), vehicle: alcohol): 95 % of control; T/C (dose: 200.0 mg/kg/injection, schedule: Q01DX001 (ip), vehicle: alcohol): 100 % of control; T/C (dose: 400.0 mg/kg/injection, schedule: Q01DX001 (ip), vehicle: alcohol): 100 % of control

Q: What does the source list for `COC(=O)C1(C)CCCC2(C)c3cc(OC)ccc3C3(CC12)OCCS3` (configuration not stated)?
A: T/C (dose: 2.5 mg/kg/injection, schedule: Q01DX009 (ip), vehicle: saline with Tween-80): 100 % of control; T/C (dose: 5.0 mg/kg/injection, schedule: Q01DX009 (ip), vehicle: saline with Tween-80): 98 % of control; T/C (dose: 10.0 mg/kg/injection, schedule: Q01DX009 (ip), vehicle: saline with Tween-80): 92 % of control

Q: What does the source list for `CN=P1(NC)NP(=NC)(NC)NP(=NC)(NC)NP(=NC)(NC)N1.[Cl-].[Cl-].[Cl-].[Cl-].[Pt+2]` (configuration not stated)?
A: T/C (dose: 12.5 mg/kg/injection, schedule: Q04DX003 (ip), vehicle: saline with Tween-80): 102 % of control; T/C [1]: 111 % of control; T/C [2]: 120 % of control; T/C [15]: 109 % of control

Q: With `CCOC(=O)C(C(C)=O)C(=O)c1ccccc1` (configuration not stated) as the compound, how does the T/C (dose: 50.0 mg/kg/injection, schedule: Q01DX009 (ip), vehicle: saline + alcohol) read?
A: 95 % of control

Q: What about the T/C (dose: 100.0 mg/kg/injection, schedule: Q01DX009 (ip), vehicle: saline + alcohol) of the same compound?
A: 101 % of control

Q: And the T/C (dose: 200.0 mg/kg/injection, schedule: Q01DX009 (ip), vehicle: saline + alcohol)?
A: 96 % of control

Q: With `CC(=N\NC(N)=S)/C(C)=N/Nc1ccccc1` as the compound, how does the T/C (dose: 100.0 mg/kg/injection, schedule: Q04DX003 (ip), vehicle: Klucel (hydroxypropylcellulose) (HPC)) read?
A: 106 % of control

Q: And the T/C [3]?
A: 100 % of control

Q: And the T/C (dose: 400.0 mg/kg/injection, schedule: Q04DX003 (ip), vehicle: Klucel (hydroxypropylcellulose) (HPC))?
A: 100 % of control

Q: With `CCCCCCCN(CCCCCCC)CC(O)c1ccc2cc(Cl)c3ccccc3c2c1` (configuration not stated) as the compound, how does the T/C [6] read?
A: 107 % of control

Q: And the T/C [8]?
A: 112 % of control

Q: What about the T/C [9] of the same compound?
A: 105 % of control

Q: Which results are given for `Cc1ccc(/C=N\N=C\c2ccc(C)cc2)cc1`?
A: T/C [16]: 100 % of control; T/C [2]: 91 % of control; T/C [17]: 90 % of control; T/C [15]: 87 % of control; T/C [18]: 90 % of control; T/C (dose: 200.0 mg/kg/injection, schedule: Q04DX003 (ip), vehicle: saline with Tween-80): 91 % of control

Q: For `C/C(=N\O)c1ccc2ccccc2c1`, which T/C [7] is on record?
A: 101 % of control

Q: And the T/C [13]?
A: 113 % of control

Q: And the T/C [14]?
A: 102 % of control

Q: How did the T/C [10] turn out when `CCN(CC)C(=O)C(C)C1=C(C)C(N(CC)CC)=NS(=O)(=O)c2ccccc21` (configuration not stated) was run?
A: 102 % of control

Q: And the T/C [11]?
A: 90 % of control

Q: And the T/C [12]?
A: 109 % of control

Q: Which results are given for `CCOc1cc2c(cc1Cc1ccc3c(c1)OCO3)OCO2`?
A: T/C [6]: 97 % of control; T/C [8]: 107 % of control; T/C [9]: 107 % of control

Q: Which results are given for `NC1=NN(O)C2=CC([N+](=O)[O-])C=CC2=N1` (configuration not stated)?
A: T/C [16]: 101 % of control; T/C [17]: 110 % of control; T/C [18]: 97 % of control

Q: With `O=C(Nc1nc2c(Cl)cccc2s1)C(F)(F)C(F)(F)C(F)(F)F` (tested in a mixture with another compound) as the compound, how does the T/C [16] read?
A: 114 % of control

Q: What about the T/C [17] of the same compound?
A: 101 % of control
